Data on five compounds can be found in publication PMC5524647 (Nature Communications, 2017).

Assay [1] relates to mAb 4C7. The assay is classed as binding, mouse.
Another assay has as its system mAb 3D11. The assay is classed as binding, mouse.
The next assay has as its system mAb 9C1-2. The assay is classed as binding, mouse.
Assay [2] has as its system mAb 4C7. The assay is classed as binding, mouse. The source holds these as a separate data set.
The next assay relates to mAb Pp-PS-W. The assay is classed as binding, mouse.
For assay [3], the system named is serum samples from culture-confirmed Thai melioidosis patients. The assay is classed as binding, human.
Assay [4] concerns the target mAb 4C7. The assay is classed as binding, mouse. The conditions noted are these: for Kd: read-out: K D of mAb 4C7 binding.

The structures appear in SMILES notation. “Also recorded” adds a separate entry of the source.

As for `COC1C(O)C(C)OC(OC2C(O)C(CO)OC(OCCCCCN)C2O)C1OC(C)=O` (stereo not shown) [disaccharide 6], the “reactivity with mAb 4C7 (ELISA)” value with mAb 4C7 [1] was “reacted strongly; also recorded: highest recognition”. For the same compound, in the assay on mAb 3D11, the “reactivity with mAb 3D11 (ELISA)” value is listed as “reacted strongly”. For the same compound, the “reactivity with mAb 9C1-2 (ELISA)” value in the assay on mAb 9C1-2 is “reacted strongly”. Moreover, in the assay on mAb 4C7 [2], the “normalized STD effect, O-acetyl group” value worked out at 97%; the “normalized STD effect, glucose proton H3” value is given as approximately 60%; the “normalized STD effect, talose H1” value is on record as 96%; the “normalized STD effect, talose H4” value was found to be 88%. Moreover, in the assay with mAb 4C7 [2], the “normalized STD effect, talose proton at position 2” value worked out at 100%; the “normalized STD intensities, glucose protons at positions 4, 5, and 6” value is less than 50%.

With `COC1C(OC(C)=O)C(C)OC(OC2C(O)C(CO)OC(OCCCCCN)C2O)C1OC(C)=O` (stereo not shown) [disaccharide 7], in the assay on mAb Pp-PS-W, the “reactivity with mAb Pp-PS-W (ELISA)” value is “reacted strongly”. In addition, in the assay on mAb 4C7 [2], the “STD-NMR effects with mAb 4C7” value is “some STD enhancements were observed; also recorded: Low and not quantifiable STD effects”; the “STD-NMR signals with mAb 4C7” value was “did not show any signals”. The “reactivity of human immune serum samples with the coated antigen” value in assay [3] is “crossreact”.

Regarding `CC(=O)OC1C(OC2C(O)C(CO)OC(OCCCCCNC(=O)CCCCCNC(=O)CCCCC3SCC4NC(=O)NC43)C2O)OC(C)C(O)C1OC1OC(CO)C(O)C(O)C1O` (stereo not shown) [BIO-2], at mAb 4C7 [4], the “K D of mAb 4C7 binding” value is recorded as “no binding” and the “binding of mAb 4C7 according to sensorgrams” value (from here on “binding of mAb 4C7 according”) is reported as “did not interact”.

For the compound `COC1C(O)C(C)OC(OC2C(O)C(CO)OC(OCCCCCNC(=O)CCCCCNC(=O)CCCCC3SCC4NC(=O)NC43)C2O)C1OC(C)=O` (stereo not shown) [BIO-6], in the assay with mAb 4C7 [4], the “binding of mAb 4C7 according” value is “bound” and the Kd was found to be 0.022 µM.

As for `COC1C(OC(C)=O)C(C)OC(OC2C(O)C(CO)OC(OCCCCCNC(=O)CCCCCNC(=O)CCCCC3SCC4NC(=O)NC43)C2O)C1OC(C)=O` (stereo not shown) [BIO-7], in the assay on mAb 4C7 [4], the “binding of mAb 4C7 according” value is “bound” and the Kd was found to be 0.12 µM.
